Series [1] relates to CETP. The experiment in a line: CETP activity in mice plasma, CETP activity assay kit. The following applies: 5 mg/kg AP, compared to Vehicle. The series is classed as in vivo. The procedure: FIG. 7: Levels of CETP mRNA in tumor (A) and protein in serum (B) in mice tumor samples after treatment with 2 mg/kg PL or 5 mg/kg AP were determined with the RT-PCR and western blotting, respectively. Fold change in expression of serum protein was determined using densitometry analysis of western blots using ImageJ (C). CETP activity in serum was estimated using CETP activity kit (name of kit/manufacturer) (D). Values represent the means±SD of three independent experiments. * where p≤0.05, and ** where p≤0.005.
The activity of CETP in mice plasma was determined using the CETP activity assay kit according to the manufacturer's instructions (FIG. 7D). CETP activity was […] in AP treated mice compared to Vehicle. This observation was in accordance with the CETP protein expression levels observed in Vehicle, AP and PL test groups. The expression levels of CETP have been reported to be linear with its activity.

The test system of series [2] is BJ cells. The experiment in a line: Viability of normal cells, AP combined with chemotherapeutic drugs. The series is classed as cell-based, human. The procedure: (§1) FIG. 13: The effect of AP on viability of BJ and MCF-7 cells when combined with different doses of various chemotherapeutic drugs for 24 h. Values represent the means±SD of three replicates.
(§2) We anticipated that AP might have the potential to reduce toxicity and increase efficacy of known chemotherapeutic drugs which may enhance the usage of these drugs at lower concentrations with increased cancer killing effects. To test this preliminary, we treated normal (BJ) and Cancer (MCF-7) cells with different chemotherapeutic drugs as summarized in FIG. 13.
(§3) It is also clear from data that the cancer killing effect achieved using 20 μM tamoxifen was possible to achieve using a combination of AP with 10 μM tamoxifen while enhancing the viability of normal cells at the same time.

Series [3] deals with MCF-7 cells. The experiment in a line: Viability of cancer cells, AP combined with chemotherapeutic drugs. Format: cell-based, human. To be noted: 24 h. The procedure:
as §1, §2, §3

In series [4] the test system is MCF-7 cells. The following applies: as compared to BJ and triple negative BT20 cells; previously shown [1]; cited from earlier work.

Each structure is given as a SMILES string.

`CC(=O)Oc1cccc2c1C(=O)C=C(C)C2=O` [AP, Acetyl Plumbagin]: the “CETP activity in plasma” value in series [1] is “elevated”. Also, the “increase of cell viability of normal cells” value in series [2] (AP in combination with 5-Florouracil, 24 h) turned out to be 7%. Also, the “increase of viability of normal cells” value in series [2] (AP with 10 μM of tamoxifen, 24 h) stood at 7%. Besides, the “rescue of normal cells from toxic effects of tamoxifen” value in series [2] (AP with tamoxifen at higher concentrations) is given as “unable to rescue”. For the same compound, the “reduction of viability of cancer cells” value in series [3] (AP in combination with 5-Florouracil) was found to be 76%; in series [3] (AP with 10 μM of tamoxifen), 50%. In addition, the “selectivity against MCF-7” value in series [4] is given as “selective activity”.

Source of the values: patent US10485769B2, “Cholesteryl ester transfer protein (CETP) inhibition in the treatment of cancer” (KING ABDULLAH UNIVERSITY OF SCIENCE AND TECHNOLOGY, priority 2015, dated 2019).
